Where a name gives a salt, the structure may show the parent alone. Read-outs that look alike come from different tables or passages of the source. Marks after values point to notes of the source that are not given here.
Experiments:
Porosity to water = format: physicochemical; conditions: water head 25 cm, cross-sectional area 2.775 cm^2
Experimental: To measure the porosity of the materials to water, samples were placed in a ¾″ inner diameter plastic tube fitted with a plug with a hole in the middle. A wire mesh, on top of the plug, prevented the powder from passing through the plug. Deionized water was passed through the sample until the material was sufficiently packed and a second wire mesh was positioned on top of the sample. Water was added to the tube to a height of 25 centimeters above the plug of material. This height was maintained to plus or minus one cm in order to maintain a constant pressure. The porosity was calculated by calculating the volumetric flow rate (volume/time), multiplying by the cross-sectional area (2.775 cm^2), and dividing by the thickness. Accordingly, the rate should increase proportionally with increases in the cross section and decreases in the thickness.

[1] = Density by suspension in binary solvent system; format: physicochemical; conditions: melted glassy chunk, chlorobenzene/carbon tetrachloride
Description: Chlorhexidine and chlorhexidine dihydrate were melted on a glass slide heated on a hot plate. These glassy materials easily fractured into large chunks. One of these chunks from each sample was used to determine the density of the material. Using a binary solvent system consisting of chlorobenzene (density 1.102 g/cc) and carbon tetrachloride (density […]), the chunk of material was suspended. The solution was adjusted until the particle remained hovering in mid solution without floating to the surface or sinking to the bottom. The resulting solution was weighed in a 10 mL volumetric flask and the density was calculated. The procedure was repeated at least 4 times for each sample.

E. coli [2] = test: Gravity flow of inoculum through chlorhexidine base particle bed; format: cell-based; conditions: 40 mL, 6.4 million E. coli, 54 minutes
Experimental: A 40 mL mixture of inocculum comprising 6.4 million E. coli and water was passed by gravity flow through a chlorhexidine base particle bed. It took 54 minutes for the fluid to pass through the particle bed.

Dry bulk density = format: physicochemical; conditions: packed in 50 ml graduated cylinder, vortex agitated
Experimental: The materials were loosely packed into tared 50 ml graduated cylinders and agitated with a vortex mixer to further pack the materials in the cylinders. The weight of the material was determined and then divided by the volume of material to determine the bulk density. The larger value for the dihydrate is due to the significant amorphous fraction of the material that is not present in the pure chlorhexidine. The amorphous particles are smaller than crystals and fill the voids between crystals allowing for a greater packing density of particles, […]

[3] = cited from earlier work
[4] = Surface energy, contact angle on dip-coated glass slides; format: physicochemical; set-up: unit not given here
Experimental: Glass slides were cleaned in hot chromic acid, deionized water and blown dry. Two slides were treated with hexamethyldisilazane to lower their surface energy. Solutions of chlorhexidine dihydrate in chloroform/methanol and chlorhexidine in methylene chloride/methanol were prepared. The slides were coated using a dip-coater with a dipping speed of 2.8 mm/min. […] The untreated slides produced very uniform thin films.

B. subtilis = test: Gravity flow of inoculum through chlorhexidine dihydrate particle bed; format: cell-based
Experimental: (§1) Columns having a length of 30.48 cm and diameter of 0.75 in were packed with particle beds comprising chlorhexidine dihydrate having lengths of 1.9 cm, 2.5 cm, and 4.1 cm. A 40 mL mixture of inocculum (comprising 35 million B. subtilis, 91 million E. coli, 130 million R. terrigena, and 100 million A. niger) and water was passed by gravity through the chlorhexidine dihydrate particle bed.

A. niger = test: as above; format: cell-based
Experimental: as §1

E. coli [5] = test: as above; format: cell-based
Experimental: as §1

R. terrigena = test: as above; format: cell-based
Experimental: as §1

[6] = Solubility in solvents (aliquot dried and weighed); format: physicochemical; conditions: 3 days
all microorganisms = test: Treatment of influent contaminated water stream with particle bed of insoluble chlorhexidine dihydrate; format: cell-based
Description: The composition of chlorhexidine dihydrate produced mortality in all microorganisms with a minimum or greater mean 10-log reduction upon treatment of an influent contaminated water stream with a particle bed of insoluble chlorhexidine dihydrate. While it is known that soluble chlorhexidine salts are bactericidal for some microorganisms, the purification materials embodied herein require insoluble antimicrobial agents. Thus, the previously known chlorhexidine salts are unacceptable for use in the purification materials embodied herein.

[7] = Temperature dependence of solubility in water; format: physicochemical
Experimental: The effect of temperature on the solubility of chlorhexidine dihydrate in water was determined by placing a sample of chlorhexidine dihydrate in a 100 mL round bottom flask with 50 mL of deionized water. The round bottom flask contained a stir bar and was placed in an oil bath on a hot plate. The solution was gradually warmed. Aliquots were taken every 15° C. The aliquot was taken from the solution using of a syringe fitted with a micropore filter (Whatman fiberglass filter GF/D, pore size 2.7). The filter separated the solution from the suspended material. The solution was dried in a weigh boat at 60° C. overnight.

[8] = Solubility in solvents (aliquot dried and weighed); format: physicochemical; conditions: for Solubility: 7 days
Experimental: A sample of material was placed in a small vial with a few mL of solvent. The solution was stirred by shaking for several hours and then allowed to sit for a week equilibrating.
A 1 mL aliquot drawn from the solution using an Eppendorf pipette was placed in a weigh boat and dried in an oven. The dried sample was weighed. Measurements of the alcohol and water solvents were taken after three hours of mixing and again after a week. At the three hour measurement, it was necessary to centrifuge the sample in order to separate the solvent solution from the particulate matter.

E. coli/bacteria = test: Pumped flow through chlorhexidine dihydrate treatment device, Aerobic Plate Count; format: cell-based
Experimental: Dechlorinated city of Atlanta tap water was inoculated with a culture of E. coli/bacteria and pumped through a 0.25 inch chlorhexidine dihvdrate treatment device at a rate of 1 to 2 L/min up to 80 L. Bacterial recovery was determined by Aerobic Plate Count and is shown in Table 9.
Accordingly, the reaction of chlorhexidine dihydrate appears to be of a “catalytic” nature. Conversely, typical applications involving soluble chlorhexidine gluconate result in its consumption and approach a second-order reaction. The same is true for most other known antimicrobial agents. Thus, chlorhexidine dehydrate is particularly suitable for use as a purification material.

[9] = Water/Ethanol (50:50, 30.0 dyne/cm)
[10] = Water/Ethanol (70:30, 36.1 dyne/cm)
[11] = Water/Ethanol (90:10, 51.3 dyne/cm)
[12] = bed 2.5 cm, flow time 2.0 minutes
[13] = bed 4.1 cm, flow time 1.5 hours

Compound: [H]/N=C(\N/C(=N/[H])NCCCCCCNC(=N)NC(=N)Nc1ccc(Cl)cc1)Nc1ccc(Cl)cc1 [Chlorhexidine, N,N″Bis(4-chlorophenyl)-3,12-diimino-2,4,11,13-tetrazatetradecanediimideamide, reference compound]
- Porosity (Porosity to water): 3.60 mL cm^2/min/cm
- Density [1]: 1.270 ± .001 g/cc
- reduction in E. coli (E. coli [2]): greater than 99.999%
- Bulk Density (Dry bulk density): 0.64 g/cc
- Solubility ([3]; reported by Block, Disinfection, Sterilization, and Preservation, 2001): 0.0008%
- Solubility ([3]; reported by Merck Index): 0.08%
- Mean Contact Angle ([4]; Water (72.2 dyne/cm)): 10.28
- Mean Contact Angle [4, 9]: 0
- Mean Contact Angle [4, 10]: 13.5
- Mean Contact Angle [4, 11]: 15.3

Compound: [H]/N=C(\N/C(=N/[H])NCCCCCCNC(=N)NC(=N)Nc1ccc(Cl)cc1)Nc1ccc(Cl)cc1 [Chlorhexidine hydrochloride, chlorhexidine hydrochloride]
- Bulk Density (Dry bulk density): 0.15 g/cc

Compound: N=C(NCCCCCCNC(=N)NC(=N)Nc1ccc(Cl)cc1)NC(=N)Nc1ccc(Cl)cc1.O.O [Chlorhexidine dihydrate, chlorhexidine dihydrate]
- Porosity (Porosity to water): 7.55 mL cm^2/min/cm
- Density [1]: 1.266 ± .001 g/cc
- % Reduction (B. subtilis; bed 1.9 cm, flow time 1.0 hour): >99.997%
- Effluent (1.9 cm) (B. subtilis; bed 1.9 cm, inoculum 35 × 10^6, flow time 1.0 hour): <1000
- % Reduction (B. subtilis; [12]): 99.6%
- Effluent (2.5 cm) (B. subtilis; bed 2.5 cm, inoculum 35 × 10^6, flow time 2.0 minutes): 14 × 10^5
- % Reduction (B. subtilis; [13]): >99.997%
- Effluent (4.1 cm) (B. subtilis; bed 4.1 cm, inoculum 35 × 10^6, flow time 1.5 hours): <1000
- % Reduction (A. niger; bed 1.9 cm, flow time 1.0 hour): >99.9%
- Effluent (1.9 cm) (A. niger; bed 1.9 cm, inoculum 100 × 10^6, flow time 1.0 hour): <1000
- % Reduction (A. niger; [12]): 99.2%
- Effluent (2.5 cm) (A. niger; bed 2.5 cm, inoculum 100 × 10^6, flow time 2.0 minutes): 8000
- % Reduction (A. niger; [13]): >99.9%
- Effluent (4.1 cm) (A. niger; bed 4.1 cm, inoculum 100 × 10^6, flow time 1.5 hours): <1000
- % Reduction (E. coli [5]; bed 1.9 cm, flow time 1.0 hour): >99.999%
- Effluent (1.9 cm) (E. coli [5]; bed 1.9 cm, inoculum 91 × 10^6, flow time 1.0 hour): <1000
- % Reduction (E. coli [5]; [12]): >99.999%
- Effluent (2.5 cm) (E. coli [5]; bed 2.5 cm, inoculum 91 × 10^6, flow time 2.0 minutes): <1000
- % Reduction (E. coli [5]; [13]): >99.999%
- Effluent (4.1 cm) (E. coli [5]; bed 4.1 cm, inoculum 91 × 10^6, flow time 1.5 hours): <1000
- % Reduction (R. terrigena; bed 1.9 cm, flow time 1.0 hour): >99.999%
- Effluent (1.9 cm) (R. terrigena; bed 1.9 cm, inoculum 130 × 10^6, flow time 1.0 hour): <1000
- % Reduction (R. terrigena; [12]): >99.999%
- Effluent (2.5 cm) (R. terrigena; bed 2.5 cm, inoculum 130 × 10^6, flow time 2.0 minutes): <1000
- % Reduction (R. terrigena; [13]): >99.999%
- Effluent (4.1 cm) (R. terrigena; bed 4.1 cm, inoculum 130 × 10^6, flow time 1.5 hours): <1000
- Solubility ([6]; Ethanol): 1700 µg/mL
- Solubility ([6]; Iso-propanol): 900 µg/mL
- Solubility ([6]; Methanol): 3600 µg/mL
- Solubility ([6]; Water): <500 µg/mL
- mean log reduction (mortality in all microorganisms) (all microorganisms): ≥ 10 log
- Bulk Density (Dry bulk density): 0.70 g/cc
- Solubility in water ([7]; 30 ° C.): 460 µg/mL
- Solubility in water ([7]; 45 ° C.): 740 µg/mL
- Solubility in water ([7]; 60 ° C.): 780 µg/mL
- Solubility in water ([7]; 75 ° C.): 920 µg/mL
- Solubility in water ([7]; 90 ° C.): 890 µg/mL
- Solubility (in words) ([7]; hot and cold water): very limited solubility
- Solubility ([8]; Chloroform): 5600 µg/mL
- Solubility ([8]; Ethanol): 600 µg/mL
- Solubility ([8]; Ethyl Acetate): 10000 µg/mL
- Solubility ([8]; Iso-propanol): 400 µg/mL
- Solubility ([8]; MIBK): 21100 µg/mL
- Solubility ([8]; Methanol): 2800 µg/mL
- Solubility ([8]; Methylene Chloride): 5600 µg/mL
- Solubility ([8]; Water): <400 µg/mL
- Solubility (in words) ([8]; hot methanol, chloroform, methylene chloride, and ketones): appreciable solubility
- Mean Contact Angle ([4]; Water (72.2 dyne/cm)): 7.08
- Mean Contact Angle [4, 9]: 0
- Mean Contact Angle [4, 10]: 18.44
- Mean Contact Angle [4, 11]: 13.08
- inactivation of E. coli (E. coli/bacteria; 1 to 2 L/min up to 80 L, 0.25 inch thickness disc): 100%
- Total Aerobic Plate Count (E. coli/bacteria; 20 L run through device, untreated 8.6 × 10^8, 1 to 2 L/min): 10 # colonies/mL
- Total Aerobic Plate Count (E. coli/bacteria; 40 L run through device): <10 # colonies/mL
- Total Aerobic Plate Count (E. coli/bacteria; 60 L run through device): <10 # colonies/mL
- Total Aerobic Plate Count (E. coli/bacteria; 80 L run through device): <10 # colonies/mL

— patent US20080272062A1, “BROAD SPECTRUM ANTIMICROBIAL PURIFICATION DEVICES AND METHODS FOR PURIFYING FLUIDS” (WATER VISIONS INTERNATIONAL, INC., priority 2006, published 2008)
